{"source": "patent US10736933B2", "about": "“Peptide-induced NK cell activation” (priority 2015, dated 2020)", "assay_type_in_all_cases": "cell-based", "key": {"[1]": {"tested_on": "NKL cell line transfected with KIR2DS2", "test": "Vav1 phosphorylation (pVav1 Western blot) in NKL cells transfected with KIR2DS2", "details": "L721.174 (HLA-Cw*0102) cells loaded with peptide; KIR2DS2-transfected NKL, 5 minutes", "protocol": "(§1) A. L721.174 cells were incubated with indicated peptides. The cells were then incubated with the NK cell line transfected with KIR2DS2. The cells were lysed and the KIR2DS2 was then immunoprecipitated from the mixture using the GL183 antibody coupled to protein-G beads. The immune precipitate was analysed by Western blotting using a phosphotyrosine antibody. The membrane was then stripped and reprobed with an antibody to DAP12 the molecule that transduces a positive signal from KIR2DS2. Shown are the regions on the blots at the level of DAP12 (12-15 kDa). B. L721.174 cells were incubated with indicated peptides. The cells were then incubated with the NK cell line transfected with KIR2DS2 or transfected with KIR2DL2. The cells were lysed in 1% NP-40 and then analysed by Western blotting using antibodies to pVav1 and then following stripping of the membrane to Vav1. Shown are Western blots around the 98 kDa region, and below them the corresponding densitometries for 3 independent experiments.\nFIG. 7 1×10^6 L721.221-HLA-C*0304-ICP47 cells were incubated overnight at 26° C. with indicated peptides at a concentration of […]. The cells were then incubated with the NKL cell line transfected with KIR2DS2 or transfected with KIR2DL2 for 5 minutes. The cells were lysed in 1% NP-40 and then analysed by Western blotting using antibodies to pVav1 and then following stripping of the membrane to Vav1. Shown are Western blots around the 98 kDa region, and below them the corresponding densitometries for 2 independent experiments.\nFIG. 14—The Dengue virus peptide IVDLMCHATF (SEQ ID NO: 1) activates KIR2DS2 positive NK cells. 174 cells were incubated with the IVDLMCHATF (SEQ ID NO: 1) and then KIR2DS2-positive transfected NKL cells or KIR2DL2-positve transfected NKL cells. Activation of NK cells was assessed by western blotting for phosphorylated Vav1, and compared to total Vav1.\nWith reference to FIG. 6A, 1×10^6 L721.174 cells were incubated overnight at 26° C. with indicated peptides at a concentration of […]. The cells were then incubated with the NK cell line transfected with KIR2DS2 for 5 minutes. The cells were lysed in 1% digitonin buffer and the KIR2DS2 was then immunoprecipitated from the mixture using the GL183 antibody coupled to protein-G beads. The immune precipitate was analysed by Western blotting using a phosphotyrosine antibody. […] The cells were lysed in 1% NP-40 and then analysed by Western blotting using antibodies to pVav1 and then following stripping of the membrane to Vav1. […]\n(§2) With reference to FIG. 7, 1×10^6 HLA-C*0304:ICP47:721.221 cells were incubated overnight at 26° C. with indicated peptides at a concentration of 2004. […] The cells were lysed in 1% NP-40 and then analysed by Western blotting using antibodies to pVav1 and then following stripping of the membrane to Vav1. […]"}, "[2]": {"tested_on": "KIR2DS2-positive NK cell clones", "test": "Cytotoxicity of NK cell clones against peptide-loaded L721.174 cells (Live/Dead stain)", "details": "KIR2DS2-positive clones 4, 6, 9 only (not KIR2DS2-negative clone 27); compared to no peptide or VAPWNSFAL", "protocol": "(§3) L721.174 cells were incubated in the presence or absence of the peptides VAPWNSFAL (SEQ ID NO: 12) and the LNPSVAATL (SEQ ID NO: 5). The cells were then labeled with the cell tracker orange dye, and then cultured with KIR2DS2-positive NK cell clones (clones 4,6,9) or a KIR2DS2-negative NK cell clone (clone 27). Cytotoxicity was then determined using Live/Dead® fixable far-red stain.\nas §3, with “With reference to FIG. 3, 3×10^5 L721.174” for “L721.174”, “incubated at 26° C. overnight” for “incubated”, “cultured for four hours” for “cultured”"}, "[3]": {"tested_on": "KIR2DS2-positive NK cells", "test": "CD107a degranulation of NK cells from KIR2DS2-positive donors cultured with peptide-loaded L721.174 cells", "protocol": "A. cells were incubated in the presence or absence of peptides, and then cultured with NK cells from either a KIR2DS2-positive or KIR2DS2-negative donor. The level of CD107a (LAMP) expression was measured on NK cells positive for the CH-L antibody. This antibody binds to KIR2DS2, KIR2DL2 and KIR2DL3. B. Summary data from 5 KIR2DS2-positive and 6 KIR2DS2 • negative donors tested as per panel A of FIG. 2. To compare the different donors the data are normalized to 100% for the no peptide condition.\nWith reference to FIG. 2A, 3×10^5 L721.174 cells were incubated at 26° C. overnight in the presence or absence of peptides, and then cultured for four hours with NK cells from either a KIR2DS2-positive or KIR2DS2-negative donor. The level of CD107a (LAMP) expression was measured on NK cells positive for the CH-L antibody. This antibody binds to KIR2DS2, KIR2DL2 and KIR2DL3. […] With reference to FIG. 2B, summary data from 5 KIR2DS2-positive and 6 KIR2DS2 • negative donors were tested as per panel A of FIG. 2. To compare the different donors the data are normalized to 100% for the no peptide condition."}, "[4]": {"tested_on": "NK cell line transfected with KIR2DS2", "test": "DAP12 phosphorylation after KIR2DS2 immunoprecipitation (Western blot)", "details": "L721.174 cells with peptide at a concentration of 2004, NK cell line with KIR2DS2 for 5 minutes", "protocol": "as §1\nas §2, with “6A,” for “7,”, “L721.174” for “HLA-C*0304:ICP47:721.221”, “2004. […] The immune precipitate was analysed by Western blotting using a phosphotyrosine antibody.” for “2004.”"}}, "data": [{"sequence": "IVDLMCHATF [Dengue virus peptide]", "values": [{"measurement": "activation of NK cells (phosphorylated Vav1 compared to total Vav1)", "setting": "[1]", "result": "activated KIR2DS2"}]}, {"sequence": "LNPSVAATL [peptide recognized by KIR2DS2-positive NK cells]", "values": [{"measurement": "killing of L721.174 cell line", "setting": "[2]", "result": "killed the L721.174 cell line to greater extent"}, {"measurement": "level of CD107a (LAMP) degranulation", "setting": "[3]; KIR2DS2-positive donor, CH-L antibody positive NK cells, four hours, compared to no peptide", "result": "higher levels of degranulation"}, {"measurement": "level of CD107a (LAMP) degranulation", "setting": "[3]; KIR2DS2-positive donors, in combination with VAPWNSFAL, compared to the VAPWNSFAL peptide alone", "result": "higher levels of degranulation"}, {"measurement": "phosphorylation of DAP12", "setting": "[4]", "result": "induces phosphorylation of DAP12"}, {"measurement": "activation of NK cells (phosphorylated Vav1 compared to total Vav1)", "setting": "[1]", "result": "activates NK cells expressing KIR2DS2"}]}]}
